# In US6548688B1, “Diammonium ruthenium diethylenethriaminepentaacetate or hydrates thereof and process for the preparation of both” (Chubu Chelest Co., Ltd., priority 1999, dated 2003):
# Entries after “also recorded” stand apart in the source; their conditions may differ. Read-outs that look alike come from different tables or passages of the source.
# Legend:
# Format in all cases: physicochemical
# [1] = pH of 5% aqueous solution
# [2] = stability in the atmospheric condition and in aqueous solution
# solubility to water = conditions: 25° C.
structure (smiles),measurement,setting,value
O=C([O-])CN(CCN1CCN2CC(=O)[O][Ru]([O]C(=O)C1)[O]C(=O)C2)CC(=O)[O-] [diammonium ruthenium diethylenetriaminepentaacetate],pH of 5% aqueous solution,[1],5.1
same,pH of 5% aqueous solution,[1]; listed as DTPA.Ru(III).(NH4)2.2H2O,5.10
same,precipitation in aqueous solution on change of pH,[2]; acid or alkali added into the aqueous solution to change pH,does not precipitate; also recorded: without precipitating
same,storage stability (decomposition or transformation),[2]; in the atmospheric condition and in the aqueous solution,can be stably preserved; also recorded: not decomposed
same,solubility to water,solubility to water,53 mass %
same,solubility,solubility to water; crystals of Example 1,53%
